Measured values as given in US12215067B2, “Chemical compounds targeting the eye and use thereof in the treatment of eye diseases” (BIOPHYTIS, priority 2019, dated 2025).
Where two headings read alike, the source gives them in different places.

How the values were obtained:
[1] = Pharmacokinetic study via oral administration in mice, plasma concentrations; type: in vivo, mice C57BL/6
Method: (§1) The pharmacokinetic study of the chemical compounds (C) following the oral administration thereof was conducted using mice C57BL/6 (January, 53940 The Genest Saint Isle, France). The chemical compounds derived from norbixin (C) were administered at a dose of 50 mg/kg of body weight. After administration, the blood was sampled at the tail at t=0.25 h; 0.5 h; 1 h; 3 h; 6 h and 8 h. The blood samples were centrifuged and the plasmas taken. The dosage of the plasma samples made it possible to determine pharmacokinetic parameters, namely Cmax, which corresponds to the maximum concentration observed after the administration of the molecule, Tmax which is the time required to reach maximum concentration after administration of the molecule and the AUC: the area under the curve which corresponds to the plasma exposure (FIG. 2).
(§2) The LC-MSMS analysis is carried out with a HPLC 1200 Infinity chain (Agilent Technologies, Santa-Clara, United States), a UV detector and a mass spectrometer QQQ6420 (Agilent Technologies Santa-Clara, United States). The injection volume is 5 μL. The chemical compounds C are eluted on an inverse phase column C18 (2.1*50 mm, particles 3 μm; Ace-C18-Excel, AIT) with a gradient of acetonitrile and water (containing 0.1% formic acid) and a flow rate of 0.3 mL/min. The conditions of the gradient can change according to the chemical compound C analyzed. The UV detector analyzes at 460 nm and the mass spectrometer analyzed in Mode MRM—Positive.
(§3) Table 2 discloses the pharmacokinetic results of the chemical compounds C following the administration p.o. 50 mg/kg in D-α-Tocopheryl polyethylene glycol 1000 succinate (VitE-TPGS) 20% in a sodium bicarbonate buffer (0.1M).

[2] = system: primary cultures of RPE of adult pigs; assay: In vitro photoprotection of RPE cells illuminated with blue light in the presence of A2E; type: cell-based, pig; conditions: Sus scrofa, RPE, A2E 30 μM, survival 24 h after illumination; for viability at 5 µM: 5 μM compound; for viability at 10 µM: 10 μM compound; for viability at 20 µM: 20 μM compound
Excerpt: In addition to better distribution in the target-tissue, selecting new compounds must also be based on good photo-protective activity that limits the loss of the cells of the RPE and thus reducing the retinal degeneration observed during the AMD and other degenerative diseases such as Retinitis pigmentosa and Stargardt's disease. At the cellular level, on cultures of cells the RPE coming from pig retina, Fontaine et al. (2016) have shown that a treatment with norbixin (BIO201) protects the cells of the RPE against apoptosis following an illumination in the presence of A2E (80% survival 24 h after exposure). This same screening test according to the percentage of photoprotection was used so as to determine its modulation by and the chemical compounds derived from norbixin (C) object of the present invention in comparison with the photo-protective effect of norbixin and characterize these modulations from a statical standpoint.
The test in vitro described hereinabove and intended to study the photo-protective effect of norbixin was used so as to quantify the photo-protective effects of the various chemical compounds derived from norbixin (C) on the cells of the RPE illuminated with blue light in the presence of A2E (FIG. 3). The photo-protective effect of the molecules was evaluated in a phototoxicity cellular model induced by treatment by A2E followed by an illumination with blue light. The term “blue radiation” means the radiation corresponding to the blue band of the visible light spectrum, i.e. of a wavelength comprised between 435 and 490 nm. This model uses primary cultures of RPE of adult pigs. The cell survival is quantified thanks to a test of cellular viability. At −48 h the compounds to be tested (in solution at 5 mM in the DMSO) are added to obtain the final concentrations of 1 to 20 μM) then at −19 h of the A2E (final concentration 30 μM) and the cells (time 0 h) are illuminated. 24 h after the survival of the cells is measured. The acquisition of images, as well as the processing thereof, are carried out using a fluorescence microscope controlled by the Metamorph software and a dedicated quantification program. The experiments are conducted on a 96-well microplate in quadruplicate and the experiment is reproduced at least four times. The results are expressed in the form of a ratio representing the number of living cells in the wells treated by the molecules to be tested, divided by the number of living cells in the controlled wells (treated by the dilution medium without A2E). This test made it possible hereinabove to reveal the photo-protective activity of norbixin (Fontaine et al. 2016).

[3] = Pharmacokinetic study via oral administration in mice, ocular concentrations; type: in vivo, mice C57BL/6; conditions: for Tmax: C57BL/6, mouse, eye, po; for Tmax / Eye CMax: mice, p.o. 50 mg/kg in VitE-TPGS 20% in sodium bicarbonate buffer (0.1M); for Eye Exposure 50 mg/kg p.o. AUC: Table 3, repeats the eye exposure of Table 2
Method: as §1
In parallel, the ocular concentrations of the chemical compounds derived from norbixin (C) were dosed in the following way (FIG. 1): both eyes of each mouse were taken in Precellys tubes and stored at −80° C. until the time of dosing. The eyes are then ground in the Precellys tubes with a bench homogenizer, Fast-prep (Fischer Scientific, Hampton, United States) in a mixture of organic solvents, in a first step with 500 μL of chloroform/methanol (1/1, v/v) then 500 μL of chloroform/dichloromethane (1/1, v/v). The supernatants are recovered at each step and transferred to a 96-well plate of 2 mL.
For the quantification of the chemical compounds C, a calibration curve is carried out with 8 standards (5 to 5,000 ng/mL) in the same organic solvent mixtures and transferred (100 μL) to the 96-well plate of 2 mL.
The supernatants and standards are evaporated in a EZ2 (Genevac, Ipswich, United Kingdom), without heating, then taken with 100 μL of DMSO/methanol (20:80, v/v) before being transferred to a 96-well plate of 200 μL.
as §2, §3

[4] = C57BL/6, mouse, in vivo, po, 50 mg/kg

Structure (SMILES) | Cmax ([1]; C57BL/6, mouse, in vivo, po, mice, p.o. 50 mg/kg in VitE-TPGS 20% in sodium bicarbonate buffer (0.1M), read-out: Plasma CMax) | Tmax ([1]; C57BL/6, mouse, in vivo, po, mice, p.o. 50 mg/kg in VitE-TPGS 20% in sodium bicarbonate buffer (0.1M), read-out: Plasma TMax) | Plasma Exposure ([1]; mice, p.o. 50 mg/kg in VitE-TPGS 20% in sodium bicarbonate buffer (0.1M), area under the curve) | viability at 5 µM [2] | viability at 10 µM [2] | viability at 20 µM [2] | Tmax [3] | Eye Exposure 50 mg/kg p.o. AUC [3] | Eye CMax [3] | Cmax [1, 4] | Plasma Exposure [1, 4] | Tmax [1, 4]
CC(=C/C=C/C(C)=C/C=C/C=C(C)/C=C/C=C(C)/C=C/C(=O)N1CCOCC1)/C=C/C(=O)O [C2, 1-[1,4-oxazinamido](2E,4E,6E,8E,10E,12E,14E,16Z,18E)-4,8,13,17-tetramethylicosa-2,4,6,8,10,12,14,16,18-nonaenedioate] | 34000 ng/mL | 30 min | 176.2 µg·h/mL | 33.9% | 22.3% | 49.1% | 30 min | 186.5 ng · h/eye | 41 ng/eye | – | – | –
CC(=C/C=C/C(C)=C/C=C/C=C(C)/C=C/C=C(C)/C=C/C(=O)N1CCC(O)C1)/C=C/C(=O)O (stereo in doubt) [C9, 1-[(S)-3-hydroxypyrrolidinamido](2E,4E,6E,8E,10E,12E,14E,16Z,18E)-4,8,13,17-tetramethylicosa-2,4,6,8,10,12,14,16,18-nonaenedioate] | – | – | – | 22.1% | 32% | 63.7% | 60 min | 452.0 ng · h/eye | 53.1 ng/eye | 37900 ng/mL | 342.68 µg·h/mL | 60 min
CC(=C/C=C/C(C)=C/C=C/C=C(C)/C=C/C=C(C)/C=C/C(=O)NCCCN1CCOCC1)/C=C/C(=O)O [C8] | – | – | – | 28.6% | 33.4% | 75.2% | 60 min | 472.4 ng · h/eye | 56.8 ng/eye | 59800 ng/mL | 173.74 µg·h/mL | 30 min
COCCNC(=O)/C=C/C(C)=C/C=C/C(C)=C/C=C/C=C(C)/C=C/C=C(C)\C=C\C(=O)O [C1, 1-[2-methoxyethanamido](2E,4E,6E,8E,10E,12E,14E,16Z,18E)-4,8,13,17-tetramethylicosa-2,4,6,8,10,12,14,16,18-nonaenedioate] | – | – | – | 55% | 67.7% | 77.8% | 30 min | 26.6 ng · h/eye | 10.7 ng/eye | 18700 ng/mL | 52.66 µg·h/mL | 30 min
COC1CCN(C(=O)/C=C/C(C)=C/C=C/C(C)=C/C=C/C=C(C)/C=C/C=C(C)\C=C\C(=O)O)CC1 [C24, 1-[4-methoxypiperidinamido](2E,4E,6E,8E,10E,12E,14E,16Z,18E)-4,8,13,17-tetramethylicosa-2,4,6,8,10,12,14,16,18-nonaenedioate] | – | – | – | 47% | 69% | 84% | 90 min | 499.1 ng · h/eye | 96 ng/eye | 48300 ng/mL | 141.9 µg·h/mL | 30 min
CC(=C/C=C/C(C)=C/C=C/C=C(C)/C=C/C=C(C)/C=C/C(=O)NCCc1ccc(O)cc1)/C=C/C(=O)O [C16, 1-[4-hydroxyphenylethanamido](2E,4E,6E,8E,10E,12E,14E,16Z,18E)-4,8,13,17-tetramethylicosa-2,4,6,8,10,12,14,16,18-nonaenedioate] | – | – | – | 70.2% | 81.7% | 26.8% | 30 min | 8.7 ng · h/eye | 7.4 ng/eye | 10500 ng/mL | 13.23 µg·h/mL | 60 min
CC(=C/C=C/C(C)=C/C=C/C=C(C)/C=C/C=C(C)/C=C/C(=O)N1CCC(C(=O)O)CC1)/C=C/C(=O)O [C18, 1-[4-carboxypiperidinamido](2E,4E,6E,8E,10E,12E,14E,16Z,18E)-4,8,13,17-tetramethylicosa-2,4,6,8,10,12,14,16,18-nonaenedioate] | – | – | – | 27.3% | 43.1% | 63.8% | 120 min | 307.8 ng · h/eye | 27.7 ng/eye | 61600 ng/mL | 948.84 µg·h/mL | 30 min
CC(=C/C=C/C(C)=C/C=C/C=C(C)/C=C/C=C(C)/C=C/C(=O)NCCN1CCOCC1)/C=C/C(=O)O [C10, 1-[2-morpholinoethanamido](2E,4E,6E,8E,10E,12E,14E,16Z,18E)-4,8,13,17-tetramethylicosa-2,4,6,8,10,12,14,16,18-nonaenedioate] | – | – | – | 15.5% | 27.4% | 80.3% | 60 min | 533.2 ng · h/eye | 64.3 ng/eye | 30400 ng/mL | 108.1 µg·h/mL | 60 min
CC(=C/C=C/C(C)=C/C=C/C=C(C)/C=C/C=C(C)/C=C/C(=O)N1CCCOCC1)/C=C/C(=O)O [C5, 1[1,4-oxazepanamido](2E,4E,6E,8E,10E,12E,14E,16Z,18E)-4,8,13,17-tetramethylicosa-2,4,6,8,10,12,14,16,18-nonaenedioate] | – | – | – | 11.3% | 25.6% | 36% | 30 min | 188.7 ng · h/eye | 31.4 ng/eye | 37700 ng/mL | 299.9 µg·h/mL | 60 min
CC(=C/C=C/C(C)=C/C=C/C=C(C)/C=C/C=C(C)/C=C/C(=O)N1CCCCC1)/C=C/C(=O)O [C3, 1-[piperidinamido](2E,4E,6E,8E,10E,12E,14E,16Z,18E)-4,8,13,17-tetramethylicosa-2,4,6,8,10,12,14,16,18-nonaenedioate] | – | – | – | 11.3% | 68.1% | 45.1% | 30 min | 19.1 ng · h/eye | 5.1 ng/eye | 4050 ng/mL | 10.37 µg·h/mL | 30 min
